Results reported in patent US10568876B2, “Tetrahydroisoquinoline derivatives useful as inhibitors of diacylglyceride O-acyltransferase 2” (Merck Sharp & Dohme Corp., priority 2014, dated 2020).

Each compound was assayed against hDGAT2 (Homo sapiens (Human), UniProt Q96PD7) (assay: DGAT2 Enzymatic Activity Assay). Conditions: hDGAT2 Sf-9 membrane prep; 25 μM diolein, 10 μM oleoyl-CoA; triolein product by LC/MS/MS; read-out: IC50 values for inhibition of DGAT2.
Format: biochemical
Procedure, shortened: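 Membranes from Sf-9 cells expressing untagged hDGAT2 (10 ng/μL) incubated at room temperature with 25 μM diolein and 10 μM oleoyl-CoA in 100 mM Tris pH 7.0, 20 mM MgCl2, 5% ethanol. Triolein product quantified by LC/MS/MS against spiked internal standard; IC50 from 4-parameter sigmoidal fit.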

hDGAT2, sequence (Q96PD7 whole entry): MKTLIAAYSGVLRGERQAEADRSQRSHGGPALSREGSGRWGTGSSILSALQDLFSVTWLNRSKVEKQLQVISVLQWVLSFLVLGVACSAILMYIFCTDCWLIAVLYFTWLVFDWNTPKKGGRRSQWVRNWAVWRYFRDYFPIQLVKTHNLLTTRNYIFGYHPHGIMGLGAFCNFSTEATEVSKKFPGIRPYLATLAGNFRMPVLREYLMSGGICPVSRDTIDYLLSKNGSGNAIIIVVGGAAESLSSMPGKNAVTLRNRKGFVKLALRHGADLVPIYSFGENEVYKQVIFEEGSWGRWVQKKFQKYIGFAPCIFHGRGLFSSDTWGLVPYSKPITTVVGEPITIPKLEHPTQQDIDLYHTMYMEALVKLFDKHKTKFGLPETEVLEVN

Point of comparison: `COC(=O)c1cccc(-c2ccc(CNC(=O)C3CC3c3ccccc3)c3c2CCN(Cc2cccnc2)C3)c1` (stereo not drawn) [Example 99, methyl 3-(8-((2-phenylcyclopropanecarboxamido)methyl)-2-(pyridin-3-ylmethyl)-1,2,3,4-tetrahydroisoquinolin-5-yl)benzoate], IC50 3.9 µM. Against it:
- Cc1noc(C2CC2C(=O)NCc2ccc(-c3cccc(OC(F)(F)F)c3)c3c2CN(C(=O)NC2(C)CCS(=O)(=O)C2)CC3)n1 (stereo not drawn) [Example 58, N-(3-methyl-1,1-dioxidotetrahydrothiophen-3-yl)-8-((2-(3-methyl-1,2,4-oxadiazol-5-yl)cyclopropanecarboxamido)methyl)-5-(3-(trifluoromethoxy)phenyl)-3,4-dihydroisoquinoline-2(1H)-carboxamide] — 160-fold lower, 0.024 µM
- Cc1noc(C2CC2C(=O)NCc2ccc(-c3cccc(OC(F)(F)F)c3)c3c2CN(C(=O)NC2CCS(=O)(=O)C2)CC3)n1 (stereo not drawn) [Example 60, N-(1,1-dioxidotetrahydrothiophen-3-yl)-8-((2-(3-methyl-1,2,4-oxadiazol-5-yl)cyclopropanecarboxamido)methyl)-5-(3-(trifluoromethoxy)phenyl)-3,4-dihydroisoquinoline-2(1H)-carboxamide] — 8.4-fold lower, 0.463 µM
- COC(=O)C1CCN(C(=O)N2CCc3c(-c4cccc(OC)c4)ccc(CNC(=O)[C@@H]4C[C@H]4c4ccccc4)c3C2)CC1 [Example 63, methyl 1-(5-(3-methoxyphenyl)-8-(((trans)-2-phenylcyclopropanrcarboxamido)methyl)-1,2,3,4-tetrahydroisoquinoline-2-carbonyl)piperidine-4-carboxylate] — within 1.5-fold, 3.09 µM
- Cc1noc(C2CC2C(=O)NCc2ccc(-c3cccc(OC(F)(F)F)c3)c3c2CN(C(=O)NC2CCS(=O)(=O)C2)CC3)n1 (stereo not drawn) [Example 76, N-(1,1-dioxidotetrahydrothiophen-3-yl)-8-((2-(3-methyl-1,2,4-oxadiazol-5-yl)cyclopropanecarboxamido)methyl)-5-(3-(trifluoromethoxy)phenyl)-3,4-dihydroisoquinoline-2(1H)-carboxamide] — 16-fold lower, 0.238 µM
- Cc1noc(C2CC2C(=O)NCc2ccc(-c3cccc(OC(F)(F)F)c3)c3c2CN(C(=O)NC2CCS(=O)(=O)C2)CC3)n1 (stereo not drawn) [Example 78, N-(1,1-dioxidotetrahydrothiophen-3-yl)-8-((2-(3-methyl-1,2,4-oxadiazol-5-yl)cyclopropanecarboxamido)methyl)-5-(3-(trifluoromethoxy)phenyl)-3,4-dihydroisoquinoline-2(1H)-carboxamide] — 4.4-fold lower, 0.892 µM
- Cc1noc(C2CC2C(=O)NCc2ccc(-c3cccc(-n4cccn4)c3)c3c2CN(C(=O)N[C@@]2(C)CCS(=O)(=O)C2)CC3)n1 (stereo partly drawn) [Example 79, 5-(3-(1H-pyrazol-1-yl)phenyl)-N-((S)-3-methyl-1,1-dioxidotetrahydrothiophen-3-yl)-8-((2-(3-methyl-1,2,4-oxadiazol-5-yl)cyclopropanecarboxamido)methyl)-3,4-dihydroisoquinoline-2(1H)-carboxamide] — 40-fold lower, 0.098 µM
- Cc1noc(C2CC2C(=O)NCc2ccc(-c3cccc(OC(F)(F)F)c3)c3c2CN(CC(=O)NC(C)(C)C)CC3)n1 (stereo not drawn) [Example 80, N-((2-(2-(tert-butylamino)-2-oxoethyl)-5-(3-(trifluoromethoxy)phenyl)-1,2,3,4-tetrahydroisoquinolin-8-yl)methyl)-2-(3-methyl-1,2,4-oxadiazol-5-yl)cyclopropanecarboxamide] — 8.2-fold lower, 0.477 µM
- CCN(CC)C(=O)CN1CCc2c(-c3cccc(OC(F)(F)F)c3)ccc(CNC(=O)C3CC3c3nc(C)no3)c2C1 (stereo not drawn) [Example 81, N-((2-(2-(diethylamino)-2-oxoethyl)-5-(3-(trifluoromethoxy)phenyl)-1,2,3,4-tetrahydroisoquinolin-8-yl)methyl)-2-(3-methyl-1,2,4-oxadiazol-5-yl)cyclopropanecarboxamide] — 5.9-fold lower, 0.658 µM
- Cc1noc(C2CC2C(=O)NCc2ccc(-c3cccc(OC(F)(F)F)c3)c3c2CN(CC(=O)NC2CC2)CC3)n1 (stereo not drawn) [Example 82, N-((2-(2-(cyclopropylamino)-2-oxoethyl)-5-(3-(trifluoromethoxy)phenyl)-1,2,3,4-tetrahydroisoquinolin-8-yl)methyl)-2-(3-methyl-1,2,4-oxadiazol-5-yl)cyclopropanecarboxamide] — 5.4-fold lower, 0.722 µM
- Cc1noc(C2CC2C(=O)NCc2ccc(-c3cccc(OC(F)(F)F)c3)c3c2CN(CC(N)=O)CC3)n1 (stereo not drawn) [Example 83, N-((2-(2-amino-2-oxoethyl)-5-(3-(trifluoromethoxy)phenyl)-1,2,3,4-tetrahydroisoquinolin-8-yl)methyl)-2-(3-methyl-1,2,4-oxadiazol-5-yl)cyclopropanecarboxamide] — 3.1-fold lower, 1.24 µM
- COc1ccc(CNC(=O)CN2CCc3c(-c4cccc(OC(F)(F)F)c4)ccc(CNC(=O)C4CC4c4nc(C)no4)c3C2)c(OC)c1 (stereo not drawn) [Example 85, N-((2-(2-((2,4-dimethoxybenzyl)amino)-2-oxoethyl)-5-(3-(trifluoromethoxy)phenyl)-1,2,3,4-tetrahydroisoquinolin-8-yl)methyl)-2-(3-methyl-1,2,4-oxadiazol-5-yl)cyclopropanecarboxamide] — 2.5-fold lower, 1.54 µM
- Cc1noc(C2CC2C(=O)NCc2ccc(-c3cccc(OC(F)(F)F)c3)c3c2CN(CC(=O)NC2CCC2)CC3)n1 (stereo not drawn) [Example 87, N-((2-(2-(cyclobutylamino)-2-oxoethyl)-5-(3-(trifluoromethoxy)phenyl)-1,2,3,4-tetrahydroisoquinolin-8-yl)methyl)-2-(3-methyl-1,2,4-oxadiazol-5-yl)cyclopropanecarboxamide] — within 1.5-fold, 4.22 µM
- Cc1noc(C2CC2C(=O)NCc2ccc(-c3cccc(OC(F)(F)F)c3)c3c2CN(CC(=O)N[C@H](C)c2ccccc2)CC3)n1 (stereo partly drawn) [Example 88, 2-(3-methyl-1,2,4-oxadiazol-5-yl)-N-((2-(2-oxo-2-(((trans)-1-phenylethyl)amino)ethyl)-5-(3-(trifluoromethoxy)phenyl)-1,2,3,4-tetrahydroisoquinolin-8-yl)methyl)cyclopropanecarboxamide] — 1.9-fold higher, 7.6 µM
- COc1cccc(-c2ccc(CNC(=O)C3CC3c3ccccc3)c3c2CCN(S(C)(=O)=O)C3)c1 (stereo not drawn) [Example 89, N-((5-(3-methoxyphenyl)-2-(methylsulfonyl)-1,2,3,4-tetrahydroisoquinolin-8-yl)methyl)-2-phenylcyclopropanecarboxamide] — within 1.5-fold, 2.78 µM
- COc1cccc(-c2ccc(CNC(=O)C3CC3c3ccccc3)c3c2CCN(Cc2ccccc2)C3)c1 (stereo not drawn) [Example 90, N-((2-benzyl-5-(3-methoxyphenyl)-1,2,3,4-tetrahydroisoquinolin-8-yl)methyl)-2-phenylcyclopropanecarboxamide] — within 1.5-fold, 4.85 µM
- COc1cccc(-c2ccc(CNC(=O)C3CC3c3ccccc3)c3c2CCN(CC(F)(F)F)C3)c1 (stereo not drawn) [Example 93, N-((5-(3-methoxyphenyl)-2-(2,2,2-trifluoroethyl)-1,2,3,4-tetrahydroisoquinolin-8-yl)methyl)-2-phenylcyclopropanecarboxamide] — 3.2-fold lower, 1.22 µM
- COC(=O)c1cccc(-c2ccc(CNC(=O)C3CC3c3ccccc3)c3c2CCN(Cc2ccccn2)C3)c1 (stereo not drawn) [Example 94, methyl 3-(8-((2-phenylcyclopropanecarboxamido)methyl)-2-(pyridin-2-ylmethyl)-1,2,3,4-tetrahydroisoquinolin-5-yl)benzoate] — 16-fold lower, 0.247 µM
- COC(=O)c1cccc(-c2ccc(CNC(=O)C3CC3c3ccccc3)c3c2CCN(Cc2ncn(C)c2C)C3)c1 (stereo not drawn) [Example 95, methyl 3-(2-((1,5-dimethyl-1H-imidazol-4-yl)methyl)-8-((2-phenylcyclopropanecarboxamido)methyl)-1,2,3,4-tetrahydroisoquinolin-5-yl)benzoate] — within 1.5-fold, 3.78 µM
- COC(=O)c1cccc(-c2ccc(CNC(=O)C3CC3c3ccccc3)c3c2CCN(Cc2ccc(F)cc2)C3)c1 (stereo not drawn) [Example 98, methyl 3-(2-(4-fluorobenzyl)-8-((2-phenylcyclopropanecarboxamido)methyl)-1,2,3,4-tetrahydroisoquinolin-5-yl)benzoate] — within 1.5-fold, 2.68 µM
- COC(=O)c1cccc(-c2ccc(CNC(=O)C3CC3c3ccccc3)c3c2CCN(CCC(F)(F)F)C3)c1 (stereo not drawn) [Example 100, methyl 3-(8-((2-phenylcyclopropanecarboxamido)methyl)-2-(3,3,3-trifluoropropyl)-1,2,3,4-tetrahydroisoquinolin-5-yl)benzoate] — within 1.5-fold, 3.47 µM
- CCn1ccnc1CN1CCc2c(-c3cccc(OC(F)(F)F)c3)ccc(CNC(=O)C3C[C@H]3c3nc(C)no3)c2C1 (stereo partly drawn) [Example 102] — 8.6-fold lower, 0.456 µM
- Cc1noc([C@@H]2CC2C(=O)NCc2ccc(-c3cccc(OC(F)(F)F)c3)c3c2CN(CC(=O)N2[C@H](C)COC[C@H]2C)CC3)n1 (stereo partly drawn) [Example 108, (trans)-N-((2-(2-((3R,5R)-3,5-dimethylmorpholino)-2-oxoethyl)-5-(3-(trifluoromethoxy)phenyl)-1,2,3,4-tetrahydroisoquinolin-8-yl)methyl)-2-(3-methyl-1,2,4-oxadiazol-5-yl)cyclopropanecarboxamide] — 1.9-fold higher, 7.38 µM
- COc1cccc(-c2ccc(CNC(=O)C3CC3c3ccccc3)c3c2CCN(c2ncccn2)C3)c1 (stereo not drawn) [Example 110, N-((5-(3-methoxyphenyl)-2-(pyrimidin-2-yl)-1,2,3,4-tetrahydroisoquinolin-8-yl)methyl)-2-phenylcyclopropanecarboxamide] — within 1.5-fold, 3.2 µM
- COC(=O)c1cccc(-c2ccc(CNC(=O)C3CC3c3ccccc3)c3c2CCN(C(=O)Cc2ccccc2)C3)c1 (stereo not drawn) [Example 112, methyl 3-(2-(2-phenylacetyl)-8-((2-phenylcyclopropanecarboxamido)methyl)-1,2,3,4-tetrahydroisoquinolin-5-yl)benzoate] — within 1.5-fold, 2.93 µM
- COc1cccc(-c2ccc(CNC(=O)C3CC3c3ccccc3)c3c2CCN(C(=O)CC(C)(C)C)C3)c1 (stereo not drawn) [Example 114, N-((2-(3,3-dimethylbutanoyl)-5-(3-methoxyphenyl)-1,2,3,4-tetrahydroisoquinolin-8-yl)methyl)-2-phenylcyclopropanecarboxamide] — 5.5-fold lower, 0.714 µM
- COc1cccc(-c2ccc(CNC(=O)[C@@H]3C[C@H]3c3ccccc3)c3c2CCN(C(=O)C(CO)C(F)(F)F)C3)c1 (stereo partly drawn) [Example 118] — 3-fold lower, 1.31 µM
